Data published in patent US20010003848A1, “DNA SEQUENCES FOR AMMONIUM TRANSPORTER, PLASMIDS, BACTERIA, YEASTS, PLANT CELLS AND PLANTS CONTAINING THE TRANSPORTER” (priority 1993, published 2001).
Several values for one entry are separate records, joined by “and”; a condition that tells them apart may be missing. Equal entries are not always repeated. Where two headings read alike, the source gives them in different places.

Key:
[1] = test system: yeast strain Σ1278b; assay: Uptake of ^14C-methylamine in yeast strain Σ1278b; assay type: cell-based, Saccharomyces cerevisiae; conditions: 10 mM glucose; for Uptake of ^14C-methylamine in presence of carbonyl cyanide m-chlorophenylhydrazone (CCCP): Σ1278b +CCCP 10 pM; for Uptake of ^14C-methylamine in presence of 0.1 mM dinitrophenol (DNP): Σ1278b +DNP 0.1 mM
Experimental: (§1) The yeast lines 26972c::pFL61, 26972c::pFL61-MEP-a and their starting lines S1278b (Dubois & Grenson, 1979, Mol Gen Genet 175: 67-76, MEP-1/MEP-2 ura3) were grown in liquid medium with 1.7 g yeast nitrogen base without ammonium and without amino acids (Difco), 20 g agarose, 1% glucose (w/v), 0.5 mg/l proline until the culture reached the logarithmic phase. After centrifuging of each 25 ml of the culture the cells were washed with 10 mM phosphate pH 7 or pH 4 and taken up in 1.5 ml 10 mM phosphate buffer. Ten minutes before starting the transport measurements, it was made up to an end concentration of 10 mM glucose. […] of the suspension was added to a solution of 10 mM phosphate pH 4 or 7, 100 μM unlabelled methylamine and 5 μCi ^14C-labelled methylamine (0.1 mCi/1.9 μmol) (end concentrations). The uptake of the methylamine was measured after 10, 60, 120 and 180 seconds. For this, to 50 μl of starting material was taken and in a volume of 1 ml H2O+3 mM unlabelled methylamine absorbed on a glass fibre filter. After washing with 10 ml H2O+3 mM unlabelled methylamine the amount of ^14C-labelled methylamine taken up was measured by scintillation (Table Ia and Ib).

[2] = test system: yeast line 26972c::pFL61-MEP-a; assay type: cell-based, Saccharomyces cerevisiae; conditions: 10 mM glucose; for Uptake of ^14C-methylamine in presence of carbonyl cyanide m-chlorophenylhydrazone: 26972c::pF161 MEP-a +CCCP 10 pM; for Uptake of ^14C-methylamine in presence of 0.1 mM dinitrophenol (DNP): 26972c::pFL61-MEP-a +DNP 0.1 mM; for Uptake of ^14C-methylamine: 26972c::pFL61-MEP-a, two independent series
Experimental: as §1

[3] = test system: Saccharomyces cerevisiae; conditions: cited from earlier work
[4] = test system: yeast strain 26972c::pFL61; assay: Uptake of ^14C-methylamine in yeast strain 26972c::pFL61 (zero control, plasmid without cDNA insertion); assay type: cell-based, Saccharomyces cerevisiae; conditions: 10 mM glucose
Experimental: as §1

## N#CC(C#N)=NNc1cccc(Cl)c1 [CCCP, carbonyl cyanide m-chlorophenylhydrazone]
[1]; pH = 7, 10 sec
  Uptake of ^14C-methylamine in presence of carbonyl cyanide m-chlorophenylhydrazone (CCCP): 173.20 cpm
[1]; pH = 7, 60 sec
  Uptake of ^14C-methylamine in presence of carbonyl cyanide m-chlorophenylhydrazone (CCCP): 316.80 cpm
[1]; pH = 7, 120 sec
  Uptake of ^14C-methylamine in presence of carbonyl cyanide m-chlorophenylhydrazone (CCCP): 460.40 cpm
[1]; pH = 7, 180 sec
  Uptake of ^14C-methylamine in presence of carbonyl cyanide m-chlorophenylhydrazone (CCCP): 608.00 cpm
[2]; pH = 7, 10 sec
  Uptake of ^14C-methylamine in presence of carbonyl cyanide m-chlorophenylhydrazone: 484.60 cpm
[2]; pH = 7, 60 sec
  Uptake of ^14C-methylamine in presence of carbonyl cyanide m-chlorophenylhydrazone: 1407.00 cpm
[2]; pH = 7, 120 sec
  Uptake of ^14C-methylamine in presence of carbonyl cyanide m-chlorophenylhydrazone: 2597.92 cpm
[2]; pH = 7, 180 sec
  Uptake of ^14C-methylamine in presence of carbonyl cyanide m-chlorophenylhydrazone: 3620.36 cpm

## O=[N+]([O-])c1ccc(O)c([N+](=O)[O-])c1 [DNP]
[1]; pH = 7, 10 sec
  Uptake of ^14C-methylamine in presence of 0.1 mM dinitrophenol (DNP): 167.20 cpm
[1]; pH = 7, 60 sec
  Uptake of ^14C-methylamine in presence of 0.1 mM dinitrophenol (DNP): 386.00 cpm
[1]; pH = 7, 120 sec
  Uptake of ^14C-methylamine in presence of 0.1 mM dinitrophenol (DNP): 706.80 cpm
[1]; pH = 7, 180 sec
  Uptake of ^14C-methylamine in presence of 0.1 mM dinitrophenol (DNP): 906.00 cpm
[2]; pH = 7, 10 sec
  Uptake of ^14C-methylamine in presence of 0.1 mM dinitrophenol (DNP): 378.00 cpm
[2]; pH = 7, 60 sec
  Uptake of ^14C-methylamine in presence of 0.1 mM dinitrophenol (DNP): 1349.40 cpm
[2]; pH = 7, 120 sec
  Uptake of ^14C-methylamine in presence of 0.1 mM dinitrophenol (DNP): 2794.44 cpm
[2]; pH = 7, 180 sec
  Uptake of ^14C-methylamine in presence of 0.1 mM dinitrophenol (DNP): 2794.44 cpm

## Cl.N [NH4Cl]
[3]; both transport functions of Saccharomyces
  inhibition of methylamine-uptake functions: inhibitable
[1]; 1278b, pH = 7, 10 sec
  Uptake of ^14C-methylamine in presence of 0.5 mM NH4Cl: 356.60 cpm
[1]; 1278b, pH = 7, 60 sec
  Uptake of ^14C-methylamine in presence of 0.5 mM NH4Cl: 885.60 cpm
[1]; 1278b, pH = 7, 120 sec
  Uptake of ^14C-methylamine in presence of 0.5 mM NH4Cl: 1237.80 cpm
[1]; 1278b, pH = 7, 180 sec
  Uptake of ^14C-methylamine in presence of 0.5 mM NH4Cl: 1597.40 cpm
[4]; 26972c::pFL61, pH = 7, 10 sec
  Uptake of ^14C-methylamine in presence of 0.5 mM NH4Cl: 271.60 cpm
[4]; 26972c::pFL61, pH = 7, 60 sec
  Uptake of ^14C-methylamine in presence of 0.5 mM NH4Cl: 795.80 cpm
[4]; 26972c::pFL61, pH = 7, 120 sec
  Uptake of ^14C-methylamine in presence of 0.5 mM NH4Cl: 1388.20 cpm
[4]; 26972c::pFL61, pH = 7, 180 sec
  Uptake of ^14C-methylamine in presence of 0.5 mM NH4Cl: 1773.00 cpm

## CN [^14C-methylamine, methylamine]
[3]; high affinity transporter with low capacity
  maximum speed Vmax: 20 nmol/min per mg cells (dry weight)
[3]; high affinity transporter with low capacity, read-out: Km value
  Km: 250 µM
[3]; low affinity system with high capacity
  Vmax: 50 nmol/min per mg cells
[3]; low affinity system with high capacity, read-out: Km
  Km: 2000 µM
[3]; low affinity system with medium capacity
  Vmax: 33 nmol/min per mg cells
[3]; low affinity system with medium capacity, read-out: Km
  Km: 20000 µM
[1]; 1278b, pH = 7, 10 sec
  Uptake of ^14C-methylamine: 469.60 cpm
[1]; 1278b, pH = 7, 60 sec
  Uptake of ^14C-methylamine: 1022.80 cpm
[1]; 1278b, pH = 7, 120 sec
  Uptake of ^14C-methylamine: 6176.36 cpm
[1]; 1278b, pH = 7, 180 sec
  Uptake of ^14C-methylamine: 16826.67 cpm
[1]; Σ1278b, pH = 4, 10 sec
  Uptake of ^14C-methylamine: 289.00 cpm
[1]; Σ1278b, pH = 4, 60 sec
  Uptake of ^14C-methylamine: 1151.20 cpm
[1]; Σ1278b, pH = 4, 120 sec
  Uptake of ^14C-methylamine: 19605.46 cpm
[1]; Σ1278b, pH = 4, 180 sec
  Uptake of ^14C-methylamine: 32651.43 cpm
[4]; 26972c::pFL61, pH = 4, 10 sec, two independent series
  Uptake of ^14C-methylamine: 220.20 cpm and 117.20 cpm
[4]; 26972c::pFL61, pH = 4, 60 sec, two independent series
  Uptake of ^14C-methylamine: 200.60 cpm and 138.60 cpm
[4]; 26972c::pFL61, pH = 4, 120 sec, two independent series
  Uptake of ^14C-methylamine: 284.80 cpm and 197.40 cpm
[4]; 26972c::pFL61, pH = 4, 180 sec, two independent series
  Uptake of ^14C-methylamine: 317.60 cpm and 285.60 cpm
[4]; 26972c::pFL61, pH = 7, 10 sec
  Uptake of ^14C-methylamine: 202.20 cpm
[4]; 26972c::pFL61, pH = 7, 60 sec
  Uptake of ^14C-methylamine: 291.80 cpm
[4]; 26972c::pFL61, pH = 7, 120 sec
  Uptake of ^14C-methylamine: 524.80 cpm
[4]; 26972c::pFL61, pH = 7, 180 sec
  Uptake of ^14C-methylamine: 797.80 cpm
[2]; pH = 4, 10 sec
  Uptake of ^14C-methylamine: 204.80 cpm and 214.80 cpm
[2]; pH = 4, 60 sec
  Uptake of ^14C-methylamine: 283.80 cpm and 345.60 cpm
[2]; pH = 4, 120 sec
  Uptake of ^14C-methylamine: 434.40 cpm and 594.60 cpm
[2]; pH = 4, 180 sec
  Uptake of ^14C-methylamine: 479.60 cpm and 842.20 cpm
[2]; pH = 7, 10 sec
  Uptake of ^14C-methylamine: 302.80 cpm and 352.20 cpm
[2]; pH = 7, 60 sec
  Uptake of ^14C-methylamine: 1247.80 cpm and 1292.20 cpm
[2]; pH = 7, 120 sec
  Uptake of ^14C-methylamine: 3152.50 cpm and 3478.28 cpm
[2]; pH = 7, 180 sec
  Uptake of ^14C-methylamine: 8490.83 cpm and 6099.39 cpm
